≈ marks a conversion by molar mass, not a printed value. Read-outs that look alike come from different tables or passages of the source.
Legend:
[1] = test system: Escherichia coli O-55; assay: Minimum growth inhibiting concentration (Table 1); assay type: cell-based; details: O55, TSBI, pH 7.2, 37° C., 48 hours
Procedure: (§1) For information, the minimum growth inhibiting concentration is a value
(§2) concerning microorganisms cultivated in TSBI the pH of which was adjusted
(§3) to 7.2, each bacteria being incubated at 37° C. for 48 hours.

[2] = test system: Klebsiella pneumoniae ST-101; assay: Minimum growth inhibiting concentration (Table 1); assay type: cell-based; details: ST101, TSBI, pH 7.2, 37° C., 48 hours
Procedure: as §1, §2, §3

[3] = test system: Streptococcus hemolyticus A 089; assay: Minimum growth inhibiting concentration (Table 1); assay type: cell-based; details: Streptococcus pyogenes, A089, TSBI, pH 7.2, 37° C., 48 hours
Procedure: as §1, §2, §3

[4] = test system: Pseudomonas aeruguinosa 347; assay: Minimum growth inhibiting concentration (Table 1); assay type: cell-based; details: TSBI, pH 7.2, 37° C., 48 hours
Procedure: as §1, §2, §3

[5] = test system: Bacillus Subtilis PCI219; assay: Minimum growth inhibiting concentration (Table 1); assay type: cell-based; details: TSBI, pH 7.2, 37° C., 48 hours
Procedure: as §1, §2, §3

[6] = Acute toxicity in mice (Table 4); details: mouse, in vivo, po
Procedure: (§4) Next, in Table 4 are shown the curative actions (ED50 mg/Kg body wt.) and acute toxicities (LD50 mg/kg body wt.) of the typical nitrofuran derivatives of the present invention when used with infected mice.

[7] = test system: Erysiperothrix rhusiopatiae Agata; assay: Cure of mice infected with Erysiperothrix rhusiopatiae (Table 5); assay type: in vivo; details: Mus musculus, 168 h, observed 7 days, read-out: ED50 when used with Erysiperothrix rhusiopatiae
Procedure: Mice of body weight about 20 grams were used, and 0.2 ml of a culture liquid obtained by cultivating Erysiperothrix rhusiopatiae Agata for 24 hours at 37° C. in a 10% calf serum TSB added culture medium (amount of inoculated germs 4.0 × 10^7) was injected abdominally.

[8] = test system: vibroid ulcers; assay: Medicinal bath of young yellowtail with disease seeming to be vibroid ulcers; assay type: in vivo; details: of 30 fishes; 10 ppm seawater bath 10 minutes; reared further 20 days; untreated group 3 survivors
Procedure: In raising young yellowtail of a body length about 10-15 cm, since a disease seeming to be vibroid ulcers started to appear, 90 of the fishes were collected and divided into three groups. The first group of 30 fishes were reared as heretofore practiced with no change. On the other hand, the second and third groups of 30 fishes were placed for 10 minutes in respectively medicinal baths containing seawater solutions of 10 ppm of the compound of Example 1 ##SPC40##
and the compound of Example 9 ##SPC41##
following which the respective groups of fishes were returned to normal seawater where they were reared for a further 20 days. The number of fishes surviving in the case of the first group was three fishes, whereas in the case of the second and third groups, the numbers of fishes surviving were 26 and 25 fishes, respectively.

[9] = test system: Salmonella typhimium K-52; assay: Curative action in infected mice (Table 4); assay type: in vivo; details: K52, 168 h, mice infected abdominally, oral in 5% gum arabic, observation one week
Procedure: as §4
(§5) Note.- The numerical values in the table denote the amounts per unit body
(§6) weight of the nitrofuran derivatives required for cure when the experimen
(§7) was carried out using mice of body weight of about 20 grams and injecting
(§8) thereinto abdominally the microorganism-containing solutions in amounts o
(§9) 0.2 ml (the microorganism-containing solutions used being those in the
(§10) cases of test microorganisms 1, 3 and 4 in which the microorganism cultur
(§11) liquids were diluted 10^5, 5 and 10^2 times, respectively, and in
(§12) the case of test microorganism 2 that which was concentrated 2 times),
(§13) after which the nitrofuran derivatives suspended in 5% gum arabic were
(§14) forcedly administered orally followed by observation for one week.

[10] = test system: Escherichia coli K-74; assay: Curative action in infected mice (Table 4); assay type: in vivo; details: K74, 168 h, mice infected abdominally, oral in 5% gum arabic, observation one week
Procedure: as §4, §5, §6, §7, §8, §9, §10, §11, §12, §13, §14

[11] = test system: Streptococcus hemolyticus A 089; assay: Curative action in infected mice (Table 4); assay type: in vivo; details: Streptococcus pyogenes, A089, 168 h, mice infected abdominally, oral in 5% gum arabic, observation one week
Procedure: as §4, §5, §6, §7, §8, §9, §10, §11, §12, §13, §14

[12] = test system: Staphylococcus aureus 72r; assay: Curative action in infected mice (Table 4); assay type: in vivo; details: 168 h, mice infected abdominally, oral in 5% gum arabic, observation one week
Procedure: as §4, §5, §6, §7, §8, §9, §10, §11, §12, §13, §14

[13] = test system: Salmonella pullorum NIAH 5159; assay: Effectiveness in preventing infection by Salmonella pullorum in chicks (Table 6); assay type: in vivo; details: 7 days, chicks with germs isolated / chicks tested
Procedure: A culture liquid obtained by cultivating Salmonella pullorum NIAH 5159 in a YCCB culture medium for 20 hours at 37° C. was injected into the cloaca of 2-day-old chicks at the rate of 0.2 ml per chick. Nitrofuran derivatives in total amounts indicated below were then mixed with the feed, and the so mixed feed was fed to the chicks for 7 days. The chicks were then sacrificed, and the liver and/or spleen were homogenized, following which the product was cultivated for 48 hours at 37° C. in a YCCB culture medium in customary manner. The expression, "rate of germ isolation" used in the table has the following meaning. For instance, the value 4/10 means the germs were isolated from four out of the ten chicks submitted to the test.

[14] = test system: Aeromonas punctata; assay: Minimum growth inhibiting concentration, microorganisms that infect fish (Table 3); assay type: cell-based; details: Aeromonas caviae, 0.5% NaCl added ordinary agar, 25° C., 24 hours
Procedure: (§15) The minimum growth inhibiting concentrations were measured under indentical contitions as in the case of Table 1. The culture temperature was 25° C., the culture being carried out for 48 hours in the asterisked case and 24 hours in the other cases.

[15] = test system: Vibrio panulirus Vp-M-1; assay: as above; assay type: cell-based; details: VPM1, 3% NaCl added ordinary agar, 25° C., 24 hours
Procedure: as §15

[16] = test system: Chondrococcus columnaris Ek-23; assay: as above; assay type: cell-based; details: Flavobacterium columnare, EK23, 0.5% NaCl added TSB agar, 25° C., 48 hours (asterisked)
Procedure: as §15

[17] = test system: Vibrio sp. Sp-1; assay: as above; assay type: cell-based; details: SP.SP1, 3% NaCl added ordinary agar, 25° C., 24 hours
Procedure: as §15

[18] = test system: Aeromonas liquefaciens; assay: as above; assay type: cell-based; details: Aeromonas hydrophila, 0.5% NaCl added ordinary agar, 25° C., 24 hours
Procedure: as §15

[19] = test system: Aeromonas salmonicida; assay: as above; assay type: cell-based; details: 0.5% NaCl added ordinary agar, 25° C., 24 hours
Procedure: as §15

[20] = test system: Pasteurella piricida SU; assay: as above; assay type: cell-based; details: 2% NaCl added brain-heat infusion agar, 25° C., 24 hours
Procedure: as §15

[21] = test system: Vibrio anguillarum K-3; assay: as above; assay type: cell-based; details: K3, 3% NaCl added ordinary agar, 25° C., 24 hours
Procedure: as §15

[22] = test system: Vibrio piscium var. Japonicus; assay: as above; assay type: cell-based; details: Vibrio anguillarum, 0.5% NaCl added ordinary agar, 25° C., 24 hours
Procedure: as §15

Row | Compound | MIC [1] [µg/mL] | MIC [2] [µg/mL] | MIC [3] [µg/mL] | MIC [4] [µg/mL] | MIC [5] [µg/mL] | LD50 [6] [mg/kg] | ED50 ([7]; oral administration) [mg/kg] | ED50 ([7]; sc, subcutaneous injection) [mg/kg] | Number of fishes surviving [8] [fishes] | ED50 [9] [mg/kg] | ED50 [10] [mg/kg] | ED50 [11] [mg/kg] | ED50 [12] [mg/kg] | Rate of germ isolation ([13]; 50 ppm in feed) | Rate of germ isolation ([13]; 100 ppm in feed) | Rate of germ isolation ([13]; 200 ppm in feed) | Rate of germ isolation ([13]; 400 ppm in feed) | Rate of germ isolation ([13]; 800 ppm in feed) | MIC [14] [µg/mL] | MIC [15] [µg/mL] | further results
1 | O=C(NCCO)c1ccc(C=Cc2ccc([N+](=O)[O-])o2)cc1 [Example 1, 2-Para-[2'-(5"-nitro-2"-furyl)-vinyl]-benzoylaminoethanol] | 3.13 (≈ 10.4 µM) | 3.13 (≈ 10.4 µM) | < 0.19 | 12.5 (≈ 41.4 µM) | < 0.19 | 1500 | 21.8 | 50 | 26 | 75 | 14 | 8 | 14 | 4/10 | 4/10 | 3/10 | 2/10 | 0/10 | 0.125 (≈ 0.414 µM) | 0.009 (≈ 0.0298 µM) | MIC [16]: 0.0037 µg/mL (≈ 0.0122 µM); MIC [17]: 0.018 µg/mL (≈ 0.0595 µM); MIC [18]: 0.062 µg/mL (≈ 0.205 µM); MIC [19]: 0.018 µg/mL (≈ 0.0595 µM); MIC [20]: 0.037 µg/mL (≈ 0.122 µM); MIC [21]: 0.018 µg/mL (≈ 0.0595 µM); MIC [22]: < 0.015 µg/mL
2 | O=C(NCC(O)CO)c1ccc(C=Cc2ccc([N+](=O)[O-])o2)cc1 (stereo not drawn) [Example 9, 3-Para-[2'-(5"-nitro-2"-furyl)-vinyl]-benzoylamino-1,2-propanediol] | 3.13 (≈ 9.42 µM) | 6.25 (≈ 18.8 µM) | < 0.19 | > 25 | < 0.19 | > 2000 | 25.5 | 42.1 | 25 | 100 | 10 | 15 | 21 | 4/10 | 4/10 | 3/10 | 2/10 | 1/10 | 0.25 (≈ 0.752 µM) | 0.009 (≈ 0.0271 µM) | MIC [16]: 0.0037 µg/mL (≈ 0.0111 µM); MIC [17]: 0.018 µg/mL (≈ 0.0542 µM); MIC [18]: 0.037 µg/mL (≈ 0.111 µM); MIC [19]: 0.018 µg/mL (≈ 0.0542 µM); MIC [20]: 0.037 µg/mL (≈ 0.111 µM); MIC [21]: 0.037 µg/mL (≈ 0.111 µM); MIC [22]: < 0.015 µg/mL

From patent US3994882A, “Nitrofuran derivatives, process for the preparation thereof and compositions containing same as active ingredient” (Kabushiki Kaisha Ueno Seiyaku Oyo Kenkyujo, priority 1974, dated 1976)
